For data set [1], the target named is Cyclin-dependent kinase 5/CDK5 activator 1 (Homo sapiens) (UniProt Q00535+Q15078). Put plainly: Inhibition of CDK5/p35 (unknown origin) at 10 uM using FAM-labelled peptide as substrate pre-incubated for 10 mins followed by substrate addition by mobility shift assay relative to control. It counts as protein-complex assay.
Data set [2] has as its system NCI-H226. Put plainly: Antiproliferative activity against human NCI-H226 cells assessed as inhibition of cell growth at 10 uM incubated for 48 hrs by MTT assay relative to control. It counts as functional. Particulars: NCI-H226, 48 h.
The test system of data set [3] is Epidermal growth factor receptor (Homo sapiens), P00533 [L858R]. Briefly: Inhibition of recombinant human EGFR L858R mutant expressed in baculovirus at 10 uM using FAM-labelled peptide as substrate pre-incubated for 10 mins followed by substrate addition by mobility shift assay relative to control.
Data set [4] deals with NCI-H226. Briefly: Induction of apoptosis in human NCI-H226 cells assessed as necrotic cells at 5 uM measured after 24 hrs by Annexin-V/propidium iodide staining-based flow cytometric analysis (reference value: 3%). It counts as functional.
Data set [5] concerns NCI-H226. Put plainly: Induction of apoptosis in human NCI-H226 cells assessed as viable cells at 5 uM measured after 24 hrs by Annexin-V/propidium iodide staining-based flow cytometric analysis (reference value: 93.4%). It counts as functional. Particulars: NCI-H226, 24 h, read-out: Activity.
A short description of data set [6]: Induction of apoptosis in gefitinib-insensitive human HCC827GR cells assessed as necrotic cells at 1 uM measured after 24 hrs by Annexin-V/propidium iodide staining-based flow cytometric analysis (reference value: 5.8%). It counts as functional. In general terms: A flow cytometer gives signals particle by particle.
Data set [7] in a line: Induction of apoptosis in gefitinib-insensitive human HCC827GR cells assessed as viable cells at 1 uM measured after 24 hrs by Annexin-V/propidium iodide staining-based flow cytometric analysis (reference value: 90.8%). It counts as functional. Particulars: read-out: Activity.
The nature of data set [8]: Induction of apoptosis in gefitinib-insensitive human HCC827GR cells assessed as viable cells at 5 uM measured after 24 hrs by Annexin-V/propidium iodide staining-based flow cytometric analysis (reference value: 90.8%). It counts as functional. Particulars: read-out: Activity.
Data set [9] in a line: Induction of apoptosis in gefitinib-insensitive human HCC827GR cells assessed as early apoptotic cells at 1 uM measured after 24 hrs by Annexin-V/propidium iodide staining-based flow cytometric analysis (reference value: 1.9%). It counts as functional.
Data set [10] is described as follows: Induction of apoptosis in gefitinib-insensitive human HCC827GR cells assessed as early apoptotic cells at 2.5 uM measured after 24 hrs by Annexin-V/propidium iodide staining-based flow cytometric analysis (reference value: 1.9%). It counts as functional.
A short description of data set [11]: Toxicity in BALB/c nude mouse xenografted with human HCC827GR cells assessed as body weight at 15 mg/kg, ip dosed measured every 2 days upto 24 days. It counts as organism-based. Particulars: in vivo. Background: In xenograft studies the graft and the host belong to different species.
Data set [12] is described as follows: Induction of apoptosis in gefitinib-insensitive human HCC827GR cells assessed as late apoptotic cells at 5 uM measured after 24 hrs by Annexin-V/propidium iodide staining-based flow cytometric analysis (reference value: 1.5%). It counts as functional.
In data set [13] the target is Tyrosine-protein kinase JAK3 (Homo sapiens) (UniProt P52333). Briefly: Inhibition of N-terminal GST tagged human JAK3 catalytic domain (795 to 1124 AA) expressed in baculovirus at 10 uM using FAM-labelled peptide as substrate pre-incubated for 10 mins followed by substrate addition by mobility shift assay relative to control.
Sequence of Tyrosine-protein kinase JAK3 (Homo sapiens) (P52333 whole entry, the tested form may be a part): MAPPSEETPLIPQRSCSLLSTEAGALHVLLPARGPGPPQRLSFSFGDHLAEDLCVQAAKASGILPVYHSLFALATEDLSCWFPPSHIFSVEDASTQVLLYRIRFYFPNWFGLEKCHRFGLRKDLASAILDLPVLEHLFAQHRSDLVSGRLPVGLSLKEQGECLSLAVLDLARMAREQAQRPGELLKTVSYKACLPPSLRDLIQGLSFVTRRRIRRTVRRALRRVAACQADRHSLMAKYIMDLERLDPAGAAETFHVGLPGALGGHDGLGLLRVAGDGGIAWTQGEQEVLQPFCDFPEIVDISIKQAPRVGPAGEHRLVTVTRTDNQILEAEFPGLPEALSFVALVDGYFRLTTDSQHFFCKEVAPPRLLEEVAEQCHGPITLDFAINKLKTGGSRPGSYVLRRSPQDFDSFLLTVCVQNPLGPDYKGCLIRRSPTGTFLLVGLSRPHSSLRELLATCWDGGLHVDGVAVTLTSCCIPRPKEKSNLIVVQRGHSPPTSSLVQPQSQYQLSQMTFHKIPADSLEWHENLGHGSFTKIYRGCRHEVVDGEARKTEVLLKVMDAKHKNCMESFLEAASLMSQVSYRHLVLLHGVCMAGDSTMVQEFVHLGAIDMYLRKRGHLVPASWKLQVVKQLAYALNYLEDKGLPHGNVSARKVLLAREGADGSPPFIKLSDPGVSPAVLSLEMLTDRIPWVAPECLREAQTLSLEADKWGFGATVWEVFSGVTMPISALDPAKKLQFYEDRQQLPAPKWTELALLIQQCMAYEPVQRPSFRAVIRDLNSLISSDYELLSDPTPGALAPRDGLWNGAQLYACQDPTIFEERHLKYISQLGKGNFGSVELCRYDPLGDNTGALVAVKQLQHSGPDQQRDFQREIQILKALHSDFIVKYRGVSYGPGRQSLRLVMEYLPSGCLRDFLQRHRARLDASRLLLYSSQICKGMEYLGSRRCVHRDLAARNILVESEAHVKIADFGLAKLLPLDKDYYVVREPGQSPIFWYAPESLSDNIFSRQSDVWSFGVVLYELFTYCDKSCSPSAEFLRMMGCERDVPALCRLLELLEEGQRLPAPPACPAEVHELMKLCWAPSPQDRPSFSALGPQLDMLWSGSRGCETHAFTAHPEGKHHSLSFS

Sequence of Epidermal growth factor receptor (Homo sapiens), P00533 [L858R] (P00533 whole entry L858R): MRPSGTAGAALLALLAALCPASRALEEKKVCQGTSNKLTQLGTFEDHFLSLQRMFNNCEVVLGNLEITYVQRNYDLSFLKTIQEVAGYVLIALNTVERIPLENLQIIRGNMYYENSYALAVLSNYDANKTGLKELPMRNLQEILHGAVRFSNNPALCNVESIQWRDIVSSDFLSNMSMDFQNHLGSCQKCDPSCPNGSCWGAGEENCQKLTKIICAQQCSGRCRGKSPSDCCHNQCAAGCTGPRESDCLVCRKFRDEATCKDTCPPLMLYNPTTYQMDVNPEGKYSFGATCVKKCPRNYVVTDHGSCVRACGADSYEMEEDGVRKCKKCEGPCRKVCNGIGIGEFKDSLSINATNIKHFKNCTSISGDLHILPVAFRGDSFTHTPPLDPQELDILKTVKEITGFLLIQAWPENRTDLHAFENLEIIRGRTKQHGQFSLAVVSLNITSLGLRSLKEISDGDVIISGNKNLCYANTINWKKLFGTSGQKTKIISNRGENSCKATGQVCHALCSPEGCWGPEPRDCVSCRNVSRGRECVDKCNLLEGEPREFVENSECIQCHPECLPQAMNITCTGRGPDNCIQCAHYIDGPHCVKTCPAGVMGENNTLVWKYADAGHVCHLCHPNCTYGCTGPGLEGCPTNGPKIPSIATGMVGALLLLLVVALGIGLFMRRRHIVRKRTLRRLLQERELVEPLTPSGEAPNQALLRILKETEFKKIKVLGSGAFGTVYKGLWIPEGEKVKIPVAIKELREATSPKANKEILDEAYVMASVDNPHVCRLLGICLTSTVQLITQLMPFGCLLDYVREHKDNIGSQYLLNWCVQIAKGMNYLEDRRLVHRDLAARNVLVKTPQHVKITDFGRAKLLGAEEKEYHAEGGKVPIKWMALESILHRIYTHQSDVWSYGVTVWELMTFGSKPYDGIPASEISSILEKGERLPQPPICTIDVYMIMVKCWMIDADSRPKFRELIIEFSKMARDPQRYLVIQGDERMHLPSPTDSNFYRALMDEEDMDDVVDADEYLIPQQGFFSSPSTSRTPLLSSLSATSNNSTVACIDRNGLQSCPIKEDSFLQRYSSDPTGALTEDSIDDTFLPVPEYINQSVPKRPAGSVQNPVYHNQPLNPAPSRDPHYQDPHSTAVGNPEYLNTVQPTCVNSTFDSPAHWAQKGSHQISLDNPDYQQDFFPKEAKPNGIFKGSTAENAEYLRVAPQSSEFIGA
Sequence of Cyclin-dependent kinase 5/CDK5 activator 1 (Homo sapiens) (Q00535 whole entry): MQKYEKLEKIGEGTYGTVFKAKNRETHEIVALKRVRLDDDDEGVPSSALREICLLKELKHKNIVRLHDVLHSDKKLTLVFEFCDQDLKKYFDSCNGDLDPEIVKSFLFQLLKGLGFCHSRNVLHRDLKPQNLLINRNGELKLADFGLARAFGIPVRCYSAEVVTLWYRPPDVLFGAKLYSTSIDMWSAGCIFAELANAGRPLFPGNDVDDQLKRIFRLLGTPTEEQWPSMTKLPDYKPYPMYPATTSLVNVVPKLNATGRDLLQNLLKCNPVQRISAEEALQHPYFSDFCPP
Sequence of Cyclin-dependent kinase 5/CDK5 activator 1 (Homo sapiens) (Q15078 99-307 partner limits assumed): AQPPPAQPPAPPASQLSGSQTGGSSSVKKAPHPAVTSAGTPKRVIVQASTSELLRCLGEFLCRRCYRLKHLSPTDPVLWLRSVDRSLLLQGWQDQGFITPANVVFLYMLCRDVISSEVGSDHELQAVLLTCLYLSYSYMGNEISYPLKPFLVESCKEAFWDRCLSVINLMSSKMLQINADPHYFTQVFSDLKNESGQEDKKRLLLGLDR

For the molecule `COc1ccc(OC)c(Nc2cc(NC(=O)Nc3c(Cl)cccc3Cl)ncn2)c1`, the inhibition (as a rule, the change of the read-out against control, counted positive when it falls) in data set [1] was -2.81%; in data set [3] it was 96.9%; in data set [13] it was 3.36%. The inhibition at 10 µM with NCI-H226 [2] came out at 81.7%. Further, the Activity is 5.2% in the data set on NCI-H226 [4]; 3.6% in data set [6]; 0.9% in data set [9]; 2.5% in [10]; “Non-Toxic” in [11]; 25.3% in data set [12]. The viability at 5 µM in the data set with NCI-H226 [5] turned out to be 79.6%; in [8], 68.9%. Further, in data set [7], the viability at 1 µM was found to be 79.5%.

Values taken from ChEMBL document CHEMBL4414679, “Discovery of 4,6-pyrimidinediamine derivatives as novel dual EGFR/FGFR inhibitors aimed EGFR/FGFR1-positive NSCLC” (Eur J Med Chem, 2020).
